ChEMBL document CHEMBL2040810, “In search for new chemical entities as adenosine receptor ligands: development of agents based on benzo-γ-pyrone skeleton” (Eur J Med Chem, 2012)
The source made the active and inactive calls. The rule behind the calls is not given here.

Legend:
[1] = molecular target: T1, Adenosine receptor A1 (Homo sapiens) (UniProt P30542); test: Displacement of [3H]DPCPX from human adenosine A1 receptor expressed in CHO cells at 10 uM after 60 mins by liquid scintillation counting; assay type: cell-based
T1 sequence (whole entry): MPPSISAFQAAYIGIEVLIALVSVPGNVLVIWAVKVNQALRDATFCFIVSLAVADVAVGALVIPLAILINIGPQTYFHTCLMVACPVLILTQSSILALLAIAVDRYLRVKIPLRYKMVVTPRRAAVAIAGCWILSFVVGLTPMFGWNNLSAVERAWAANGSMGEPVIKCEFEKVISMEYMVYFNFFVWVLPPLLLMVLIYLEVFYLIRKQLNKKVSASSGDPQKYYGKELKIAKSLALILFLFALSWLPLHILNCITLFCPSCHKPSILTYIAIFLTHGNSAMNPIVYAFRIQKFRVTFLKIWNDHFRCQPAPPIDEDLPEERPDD

[2] = molecular target: T2, Adenosine receptor A3 (Homo sapiens) (UniProt P0DMS8); test: Displacement of [3H]NECA from human adenosine A3 receptor expressed in HeLa cells at 10 uM after 30 mins by liquid scintillation counting; assay type: cell-based
T2 sequence (whole entry): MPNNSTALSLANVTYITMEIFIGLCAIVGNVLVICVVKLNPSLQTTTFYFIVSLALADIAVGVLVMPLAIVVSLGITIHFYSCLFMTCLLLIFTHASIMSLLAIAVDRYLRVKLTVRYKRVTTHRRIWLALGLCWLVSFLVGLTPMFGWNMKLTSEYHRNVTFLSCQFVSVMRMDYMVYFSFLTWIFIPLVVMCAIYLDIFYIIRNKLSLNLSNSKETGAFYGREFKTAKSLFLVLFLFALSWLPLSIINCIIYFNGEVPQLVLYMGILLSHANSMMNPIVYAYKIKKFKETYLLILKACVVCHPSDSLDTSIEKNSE

[3] = molecular target: T3, Adenosine receptor A2b (Homo sapiens) (UniProt P29275); test: Displacement of [3H]DPCPX from human adenosine A2B receptor expressed in HEK293 cells at 10 uM after 30 mins by liquid scintillation counting; assay type: cell-based
T3 sequence (whole entry): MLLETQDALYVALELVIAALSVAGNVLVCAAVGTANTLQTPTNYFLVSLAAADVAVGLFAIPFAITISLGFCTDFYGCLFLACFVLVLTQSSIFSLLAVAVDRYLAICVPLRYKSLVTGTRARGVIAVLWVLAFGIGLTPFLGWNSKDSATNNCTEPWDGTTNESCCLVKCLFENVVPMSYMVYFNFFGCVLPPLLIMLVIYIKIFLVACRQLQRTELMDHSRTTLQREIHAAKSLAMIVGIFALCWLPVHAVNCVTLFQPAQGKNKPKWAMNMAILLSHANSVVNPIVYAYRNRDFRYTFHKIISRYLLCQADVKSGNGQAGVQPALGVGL

Adenosine receptor A2b = molecular target: T4, Adenosine receptor A2b (Homo sapiens, UniProt P29275); test: Displacement of [3H]DPCPX from human adenosine A2B receptor expressed in HEK293 cells after 30 mins by liquid scintillation counting; assay type: cell-based
T4 sequence (P29275 whole entry): T3 sequence (whole entry)

[4] = molecular target: Adenosine receptor A2a (Homo sapiens) (UniProt P29274); test: Displacement of [3H][…] from human adenosine A2A receptor expressed in HeLa cells at 10 uM after 30 mins by liquid scintillation counting; assay type: cell-based
Adenosine receptor A2a (Homo sapiens), sequence (P29274 whole entry): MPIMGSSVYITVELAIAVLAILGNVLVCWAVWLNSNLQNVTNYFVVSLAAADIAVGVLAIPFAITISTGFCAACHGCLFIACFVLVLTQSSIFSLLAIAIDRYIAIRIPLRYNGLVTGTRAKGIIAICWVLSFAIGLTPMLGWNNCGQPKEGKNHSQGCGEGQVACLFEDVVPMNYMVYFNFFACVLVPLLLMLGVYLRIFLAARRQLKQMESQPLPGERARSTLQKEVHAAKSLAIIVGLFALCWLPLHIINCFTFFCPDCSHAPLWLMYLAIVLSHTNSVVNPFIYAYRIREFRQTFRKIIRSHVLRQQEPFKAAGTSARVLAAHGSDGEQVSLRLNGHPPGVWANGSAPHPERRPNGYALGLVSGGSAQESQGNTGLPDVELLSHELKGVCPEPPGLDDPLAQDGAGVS

Homo sapiens = species: Homo sapiens; test: Selectivity ratio for human A2B adenosine receptor over human A3 adenosine receptor

Structure (SMILES) | Activity [1] | Activity [2] | Activity [3] | Ki (Adenosine receptor A2b) [µM] | Activity [4] | Selectivity ratio (Homo sapiens)
O=C(O)c1cc(=O)c2ccccc2o1 | Active | Active | – | – | – | –
O=C(Nc1ccc(O)cc1)c1coc2ccccc2c1=O | – | – | > 50% | 2.89 | – | –
O=C(Nc1ccc(O)c(O)c1)c1cc(=O)c2ccccc2o1 | Active | Active | Active | – | Active | –
O=C(Nc1ccc(O)c(O)c1)c1coc2ccccc2c1=O | – | – | > 50% | 1.35 | – | –
COc1ccc(NC(=O)c2coc3ccccc3c2=O)cc1OC | – | – | > 50% | 6.39 | – | –
O=C(Nc1ccccc1)c1coc2ccccc2c1=O | 3% | – | > 50% | 8.51 | 3% | 2
O=C(Nc1ccccc1)c1cc(=O)c2ccccc2o1 | Active | Active | Active | – | Active | –
O=C(Nc1ccc(O)cc1)c1cc(=O)c2ccccc2o1 | Active | Active | Active | – | Active | –
COc1ccc(NC(=O)c2cc(=O)c3ccccc3o2)cc1O | Active | Active | Active | – | Active | –
COc1ccc(NC(=O)c2cc(=O)c3ccccc3o2)cc1OC | Active | Active | Active | – | Active | –
COc1ccc(NC(=O)c2coc3ccccc3c2=O)cc1O | – | – | > 50% | 5.82 | – | –
